Reference: patent publication US6706762B1, “Methods for the use of inhibitors of co-repressors for the treatment of neoplastic diseases” (The Salk Institute for Biological Studies, priority 1997, dated 2004)

Assays:
[1] = system: myeloid leukemia (HL-60) cells; assay: Differentiation of HL-60 cells, CD14 and CD11b expression by flow cytometry; type: cell-based, human; conditions: 72 hours
Method: If HDAC is a critical component of receptor function then addition of a deacetylase inhibitor, such as Trichostatin A (TSA) (Taunton et al., Science 272:408-411 (1996)) would be expected to relieve transcriptional repression, resulting in a promoter that is likely to be more sensitive to the addition of hormone. This prediction was tested by studying the effect of TSA on the differentiation of myeloid leukemia (HL-60) cells (Collins, Blood 70:1233-1244 (1987)) following a high dose ( 100 nM) 9-cis RA treatment. A hallmark of this process is the appearance of cell surface differentiation markers CD14 and CD11b (Brackman et al., Leukemia Research 19:57-64 (1995)). HL-60 cells cultured in RPMI 10% FBS were plated at a density of 2×10^5/ml in RPMI 2% FBS treated with 9-cis RA (Sigma) and/or Trichostatin A (TSA) (Waco Pure Chemical Industries) for 72 hours and then incubated with R-phycoerythrin (RPE) conjugated anti-human C3bi receptor (CD11b) (DAKO) or RPE-conjugated monoclonal mouse anti-human CD 14 (DAKO) antibodies for 60 minutes on ice. Cells were washed twice with PBS 0.5% BSA and analyzed on a FACScan flow cytometer (Becton Dickinson). The expression of cell surface antigens (CD11b and CD14) were monitored.

[2] = system: SMRT / DNA-bound PML-RARα; assay: Gel mobility shift assay, GST-SMRT-IDII with PML-RARα homodimers on DR5 elements; type: binding; conditions: compared with RARα/RXRα heterodimers
From the text: The protein-DNA complexes were then resolved on a 4.5% native polyacrylamide gel and visualized by autoradiography.

[3] = system: PLZF-RARα / GST-SMRT-PID2; assay: GST-SMRT-PID2 affinity matrix, binding of radiolabelled PLZF-RARα; conditions: presence or absence of 5 μM ATRA
Method: (§1) Recombinant proteins were obtained as follows and in vitro protein interaction assays were carried out as follows. GST-PLZF and GST-SMRT fusion proteins were produced from E. Coli DH5a or BL-21 cells and purified by glutathione-Sepharose 4B affinity chromatography. Bound proteins were eluted with 15 mM glutathione. Purified proteins were then reloaded on glutathione-Sepharose 4B beads and used as affinity matrices. Protein interaction assays were performed in G buffer (20 mM Tris, 7.9, 150 mM KCl, 1 mM EDTA, 4 mM MgCl2, 0.26 NP-40, 10% Glycerol) at 4° C. for 60 min with gentle rocking. The beads were washed five times with G buffer and bounded proteins were eluted in SDS sample buffer, separated by SDS-PAGE and visualized by autoradiography.

[4] = system: PLZF-RARα / GST-SMRT-IDII; assay: GST-SMRT-IDII affinity matrix, binding of radiolabelled PLZF-RARα; conditions: presence of 5 μM ATRA
Method: as §1

[5] = system: GAL-PLZF-RARα; assay: GAL-PLZF-RARα activation of UAS reporter, transient transfection in CV1 cells; type: cell-based; conditions: for reporter activation in combination with ATRA: TSA 150 nM or NaB 5 mM plus ATRA; for reporter activation in combination with ATRA / relief of repression by GAL-PLZF-RARα: 16 hours; for relief of repression by GAL-PLZF-RARα: TSA 150 nM or NaB 5 mM
Method: (§2) GAL4-DBD fusions of RARα or PLZF-RARα were transfected into CV1 cells and examination of their RA-activation on UAS reporters. CV1 cells were transfected using DOTAP transfection reagents (Boehringer Mannheim). Luciferase activity of each sample was normalized against internal control β-galactosidase activity (Nagy et al. (1997) Cell 89:373-380). Each transfection was carried out in triplicate and repeated at least three times.

[6] = target: T1, RARα / SMRT (Homo sapiens, UniProt P10276); assay: GST-SMRT (amino acids 1,073-1,330) affinity matrix, radiolabelled RARα; type: binding; conditions: ATRA
T1 construct: made in house; host or cells: in vitro translated receptor; GST-SMRT from E. coli
T1 sequence (P10276 1-462): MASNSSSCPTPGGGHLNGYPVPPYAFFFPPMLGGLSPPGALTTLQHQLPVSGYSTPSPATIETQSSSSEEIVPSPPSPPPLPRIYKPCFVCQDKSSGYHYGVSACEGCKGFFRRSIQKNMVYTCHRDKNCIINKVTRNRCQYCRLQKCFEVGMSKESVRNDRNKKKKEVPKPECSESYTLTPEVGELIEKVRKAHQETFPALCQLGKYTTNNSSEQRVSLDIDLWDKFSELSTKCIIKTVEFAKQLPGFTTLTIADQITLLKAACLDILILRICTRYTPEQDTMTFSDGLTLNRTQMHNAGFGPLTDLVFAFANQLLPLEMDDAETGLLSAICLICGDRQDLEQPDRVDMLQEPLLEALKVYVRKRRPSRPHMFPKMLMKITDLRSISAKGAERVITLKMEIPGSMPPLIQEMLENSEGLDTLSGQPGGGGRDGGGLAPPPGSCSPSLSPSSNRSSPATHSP

[7] = system: PML-RARα/SMRT complex; assay: GST-SMRT (amino acids 1,073-1,330) affinity matrix, radiolabelled PML-RARα; type: binding; conditions: ATRA
[8] = target: T2, RARα / GST-SMRT-IDII (Homo sapiens, UniProt P10276); assay: GST-SMRT-IDII affinity matrix, binding of radiolabelled RARα; conditions: presence of 5 μM ATRA
T2 construct: made in house; host or cells: 35S-labelled receptor (in vitro translation); GST-SMRT from E. coli DH5a or BL-21
T2 sequence (P10276 1-462): T1 sequence (P10276 1-462)
Method: as §1

[9] = system: NB4 cells; assay: Nitroblue Tetrazolium (NBT) reduction differentiation assay in NB4 cells; type: cell-based, human; conditions: three days
Method: (§3) This prediction was tested utilizing the NB4 cell line established from a patient with t(15;17) APL. NB4, NB4-R4 (Shao et al. (1997) Blood 89:4282-4289), HL-60 and HL-60R (Robertson et al. (1992) Blood 80:1885-1889) cells were cultured in RPMI with 10% FBS. […] Differentiation assays with RA and/or TSA were carried out as previously described (Nagy et al. (1997) Cell 89:373-380). NBT assay has been described (Nagy et al. (1995) Mole. Cell. Biol. 15:3540-3551).

[10] = system: PML-RARα expressing HL-60 cells; conditions: Rousselot et al. (1994); cited from earlier work
[11] = target: T3, SMRT associated with RARα (Homo sapiens, UniProt P10276); assay: Immunoprecipitation of HA-RARα from CV1 cell extracts, immunoblot for SMRT; type: cell-based; conditions: ATRA (5 μM), 4° C. overnight
T3 construct: HA-RARα (amino acids 61-462); expressed in transfected cells; host or cells: CV1 cells
T3 sequence (P10276 61-462): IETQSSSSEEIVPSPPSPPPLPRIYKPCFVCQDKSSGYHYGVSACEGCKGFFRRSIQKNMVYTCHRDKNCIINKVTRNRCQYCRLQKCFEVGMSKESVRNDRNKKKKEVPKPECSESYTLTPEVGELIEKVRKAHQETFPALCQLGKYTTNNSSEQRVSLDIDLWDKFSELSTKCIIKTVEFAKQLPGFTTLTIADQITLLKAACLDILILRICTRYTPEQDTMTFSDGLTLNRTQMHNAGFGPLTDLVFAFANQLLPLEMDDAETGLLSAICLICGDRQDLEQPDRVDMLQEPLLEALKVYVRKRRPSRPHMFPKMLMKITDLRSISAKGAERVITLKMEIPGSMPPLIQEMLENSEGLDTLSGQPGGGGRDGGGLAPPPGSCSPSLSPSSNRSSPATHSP
Method: (§4) For in vitro immunoprecipitation, in vitro translated proteins were incubated together with 10 μg/μl anti-HA antibody in G buffer at 4° C. for 60 min. Immunocomplexes were isolated by incubation with protein A-agarose, washed four times with G buffer, analyzed by SDS-PAGE and visualized by autoradiography. For in vivo immunoprecipitation, 2×10^7 CV1 cells were transfected with 10 μg of appropriate plasmids and harvested in ice-cold PBS, 24 hours after transfection. Cells were lysed by hypotonic shock and the nuclear pellet was resuspended in IP buffer (PBS, 10 mM NaF, 25 mM β-glycerolphosphate, 0.1% NP-40, 0.5 mM PMSF plus protease inhibitors) and disrupted by mild sonication.
(§5) Immunocomplexes were resolved by SDS-PAGE and analyzed by immunoblotting.

[12] = system: SMRT associated with PLZF-RARα; assay: Immunoprecipitation of HA-PLZF-RARα from CV1 cell extracts, immunoblot for SMRT; type: cell-based; conditions: ATRA (5 μM), 4° C. overnight
Method: as §4, §5

[13] = system: PML-RARα; assay: TK-βRARE×2-Luc reporter, transcriptional inhibition by PML-RARα in CV1 cells; type: cell-based; conditions: NaB 5 mM, 100 nM ATRA
Method: as §2
(§6) It was then sought to determine whether similar effects can be seen on native RA-response elements. As shown previously, exogenous expression of PLZF-RARα or PML-RARα inhibits RA-activation mediated by endogenous RARs on βRARE reporters (FIG. 6(C); de Thé et al. (1991) Cell 66:675-684; Kastner et al. (1992) EMBO J. 11:629-642; Chen et al. (1994) Proc. Natl Acad. Sci. USA 91:1178-1182; Licht et al. (1996) Oncogene 12:323-336; Rousselot et al. (1994) Oncogene 9:545-551).

[14] = system: PLZF-RARα; assay: TK-βRARE×2-Luc reporter, transcriptional inhibition by PLZF-RARα in CV1 cells; type: cell-based; conditions: NaB 5 mM, 100 nM ATRA
Method: as §2, §6

[15] = system: NB4-R4 cells; assay: NBT reduction differentiation assay in retinoid-resistant NB4-R4 cells; type: cell-based, human; conditions: three days
Method: as §3

[16] = system: NB4 cells; assay: CD18 expression in NB4 cells by flow cytometry; type: cell-based, human; conditions: TSA plus 9-cis RA, three days
Method: as §3
For flow cytometry analysis of CD18 expression, the cells were incubated with a FITC-conjugated anti-CD18 antibody (DAKO) in a dilution of 1:500 in PBS (0.5% BSA) followed by extensive washing before analyzing on a FACSCAN flow cytometer (Becton Dickinson). Although histone deacetylase inhibitors are known to have pleiotropic effects on global gene expression, the fact that CD18 is a direct retinoid target gene (Agura et al. (1992) Blood 79:602-609) supports the notion that histone deacetylases are integral components of PML-RARα mediated differentiation. […] This would explain why the inhibition of SMRT-mediated repression by TSA increases the retinoid sensitivity of NB4 cells.

CC1=C(/C=C/C(C)=C\C=C\C(C)=C\C(=O)O)C(C)(C)CCC1 [9-cis RA, 9-cis retinoic acid]
CD14 expression ([1]; suboptimal dose (10 nM) of 9-cis RA alone): modest stimulation

CC1=C(/C=C/C(C)=C/C=C/C(C)=C/C(=O)O)C(C)(C)CCC1 [ATRA, all-trans retinoic acid]
ATRA concentration required to dissociate SMRT from DNA-bound PML-RARα versus RAR [2]: substantially higher concentrations | binding of PLZF-RARα to GST-SMRT-PID2 [3]: ligand-insensitive | binding of PLZF-RARα to GST-SMRT-IDII [4]: significantly reduced | response of GAL-PLZF-RARα to ATRA (reporter activation) ([5]; ATRA alone, 36 hours, compared to GAL-RARα): poorly responded | dissociation of SMRT from RARα [6]: effectively dissociated | effect on PML-RARα/SMRT complex [7]: only weakly affected | binding of RARα to GST-SMRT-IDII [8]: significantly reduced | percentage of NBT-positive cells ([9]; 1 mM ATRA alone, parental NB4 cells): 23% | ATRA concentration up to which cells are resistant [10]: up to 10^−7 M | amount of SMRT which associates with RARα [11]: greatly reduced | amount of SMRT associated with PLZF-RARα [12]: largely unaffected

CCCC(=O)[O-].[Na+] [NaB, sodium butyrate]
relief of transcriptional inhibition by PML-RARα on βRARE reporter [13]: partially, relieves transcriptional inhibition | reporter activation in combination with ATRA [5]: synergized with ATRA | relief of repression by GAL-PLZF-RARα [5]: relieved repression | RA activation of βRARE reporter in the presence of PLZF-RARα [14]: restore nearly full RA activation

CC(/C=C/C(=O)NO)=C\[C@@H](C)C(=O)c1ccc(N(C)C)cc1 [TSA, Trichostatin A]
CD14 expression ([1]; 100 nM TSA alone): minimal effect | CD14 expression ([1]; TSA plus 10 nM 9-cis RA, compared with 100 nM 9-cis RA): dramatic enhancement | CD14 expression ([1]; TSA plus high dose (100 nM) 9-cis RA): enhanced | CD11b expression ([1]; combination of TSA and 9-cis RA): cooperative at both high and low doses | CD11b expression ([1]; low doses of TSA alone): partially activated gene expression | percentage of NBT-positive cells ([15]; ATRA and 200 nM TSA): 18% | hormone-induced differentiation (NBT-positive cells) ([15]; TSA plus ATRA): partially restored hormone-induced differentiation | RA-induced expression of early differentiation marker CD18 [16]: strong stimulatory effect | reporter activation in combination with ATRA [5]: synergized with ATRA | relief of repression by GAL-PLZF-RARα [5]: relieved repression | differentiation effect of ATRA (NBT-positive cells) ([9]; TSA 50 nM plus ATRA at all concentrations tested): dramatically enhanced | differentiation (NBT-positive cells) ([9]; TSA (50 nM) alone): no effect
